Test results published in ChEMBL document CHEMBL3046393, “3D-QSAR studies of thiosemicarbazone and thiocarbamoylpyrazoline antiamebics” (Med Chem Res, 2013).

Each compound was assayed on Entamoeba histolytica (assay: Antiamoebic activity against trophozoite stage of Entamoeba histolytica HM-1:IMSS assessed as parasite growth inhibition after 72 hr by microdilution assay).
Type: functional, organism-based

Row | Structure (SMILES) | IC50
1 | CCN(CC)C(=S)N1CCC(c2cccc(Br)c2)=N1 | 1.2 µM
2 | S=C(N1CCC(Cc2ccccc2)CC1)N1CCC(c2cccc(Br)c2)=N1 | 1.4 µM
3 | S=C(N1CCC(Cc2ccccc2)CC1)N1CCC(c2ccccc2)=N1 | 2.3 µM
4 | S=C(N1CCN(c2ccccc2)CC1)N1CCC(c2cccc(Cl)c2)=N1 | 1.2 µM
5 | S=C(N1CCN(c2ccccc2)CC1)N1CCC(c2ccccc2)=N1 | 3.1 µM
6 | S=C(N1CCN(c2ccccc2)CC1)N1CCC(c2cccc(Br)c2)=N1 | 1.6 µM
7 | CC1CCN(C(=S)N2CCC(c3cccc(Cl)c3)=N2)CC1 | 2.8 µM
8 | CC1CCN(C(=S)N2CCC(c3cccc(Br)c3)=N2)CC1 | 3.6 µM
9 | CC1CCN(C(=S)N2CCC(c3ccccc3)=N2)CC1 | 4.8 µM
10 | S=C(NCc1ccccc1Cl)N1CCC(c2cccc(Cl)c2)=N1 | 2.2 µM
11 | S=C(NCc1ccccc1Cl)N1CCC(c2cccc(Br)c2)=N1 | 2.6 µM
12 | S=C(NCc1ccccc1Cl)N1CCC(c2ccccc2)=N1 | 7.6 µM
13 | S=C(NC1CCCCCCC1)N1CCC(c2cccc(Br)c2)=N1 | 2 µM
14 | S=C(NC1CCCCCCC1)N1CCC(c2cccc(Cl)c2)=N1 | 1.5 µM
15 | S=C(NC1CCCC1)N1CCC(c2cccc(Cl)c2)=N1 | 3.7 µM
16 | S=C(NC1CCCCC1)N1CCC(c2ccccc2)=N1 | 5.2 µM
17 | S=C(NC1CCCCC1)N1CCC(c2cccc(Br)c2)=N1 | 3.1 µM
18 | S=C(NC1CCCCC1)N1CCC(c2cccc(Cl)c2)=N1 | 2.4 µM
19 | S=C(NC1CCCCCCC1)N1CCC(c2ccccc2)=N1 | 2.5 µM
20 | S=C(NC1CCCC1)N1CCC(c2cccc(Br)c2)=N1 | 4.2 µM

Row | Structure (SMILES) | IC50
21 | CCCN(CCC)C(=S)N1CCC(c2cccc(Cl)c2)=N1 | 0.6 µM
22 | S=C(NC1CCCC1)N1CCC(c2ccccc2)=N1 | 6.5 µM
23 | CCCN(CCC)C(=S)N1CCC(c2cccc(Br)c2)=N1 | 0.8 µM
24 | CCCN(CCC)C(=S)N1CCC(c2ccccc2)=N1 | 2 µM
25 | CCN(CC)C(=S)N1CCC(c2cccc(Cl)c2)=N1 | 1 µM
26 | CCN(CC)C(=S)N1CCC(c2ccccc2)=N1 | 4.2 µM
27 | CCCCN(C)C(=S)N1CCC(c2cccc(Cl)c2)=N1 | 0.7 µM
28 | CCCCN(C)C(=S)N1CCC(c2ccccc2)=N1 | 5.7 µM
29 | CCCCN(C)C(=S)N1CCC(c2cccc(Br)c2)=N1 | 2.4 µM
30 | CC(C)CNC(=S)N1CCC(c2cccc(Cl)c2)=N1 | 5 µM
31 | CC(C)CNC(=S)N1CCC(c2cccc(Br)c2)=N1 | 6.1 µM
32 | CCCCNC(=S)N1CCC(c2cccc(Cl)c2)=N1 | 12.3 µM
33 | CC(C)CNC(=S)N1CCC(c2ccccc2)=N1 | 11.2 µM
34 | CCCCNC(=S)N1CCC(c2cccc(Br)c2)=N1 | 14.2 µM
35 | CCCCNC(=S)N1CCC(c2ccccc2)=N1 | 23.3 µM
36 | CC(C)NC(=S)N1CCC(c2cccc(Cl)c2)=N1 | 12.2 µM
37 | CCCNC(=S)N1CCC(c2cccc(Br)c2)=N1 | 8.5 µM
38 | CC(C)NC(=S)N1CCC(c2ccccc2)=N1 | 23 µM
39 | CCCNC(=S)N1CCC(c2ccccc2)=N1 | 14 µM
40 | CC(C)/N=C(\S)N1CCC(c2cccc(Br)c2)=N1 | 15.2 µM
